We go through 28 molecules from US11731976B2, “3-(ethoxydifluoromethyl)-6-(5-fluoro-6-(2,2,2-trifluoroethoxy)pyridin-3-yl)-[1,2,4]triazolo[4,3-a]pyridine as an ion channel modulator” (Praxis Precision Medicines, Inc., priority 2018, dated 2023).

A value given as a limit tells only on which side of the number the result lay.

T1 sequence (Q9UQD0 whole entry): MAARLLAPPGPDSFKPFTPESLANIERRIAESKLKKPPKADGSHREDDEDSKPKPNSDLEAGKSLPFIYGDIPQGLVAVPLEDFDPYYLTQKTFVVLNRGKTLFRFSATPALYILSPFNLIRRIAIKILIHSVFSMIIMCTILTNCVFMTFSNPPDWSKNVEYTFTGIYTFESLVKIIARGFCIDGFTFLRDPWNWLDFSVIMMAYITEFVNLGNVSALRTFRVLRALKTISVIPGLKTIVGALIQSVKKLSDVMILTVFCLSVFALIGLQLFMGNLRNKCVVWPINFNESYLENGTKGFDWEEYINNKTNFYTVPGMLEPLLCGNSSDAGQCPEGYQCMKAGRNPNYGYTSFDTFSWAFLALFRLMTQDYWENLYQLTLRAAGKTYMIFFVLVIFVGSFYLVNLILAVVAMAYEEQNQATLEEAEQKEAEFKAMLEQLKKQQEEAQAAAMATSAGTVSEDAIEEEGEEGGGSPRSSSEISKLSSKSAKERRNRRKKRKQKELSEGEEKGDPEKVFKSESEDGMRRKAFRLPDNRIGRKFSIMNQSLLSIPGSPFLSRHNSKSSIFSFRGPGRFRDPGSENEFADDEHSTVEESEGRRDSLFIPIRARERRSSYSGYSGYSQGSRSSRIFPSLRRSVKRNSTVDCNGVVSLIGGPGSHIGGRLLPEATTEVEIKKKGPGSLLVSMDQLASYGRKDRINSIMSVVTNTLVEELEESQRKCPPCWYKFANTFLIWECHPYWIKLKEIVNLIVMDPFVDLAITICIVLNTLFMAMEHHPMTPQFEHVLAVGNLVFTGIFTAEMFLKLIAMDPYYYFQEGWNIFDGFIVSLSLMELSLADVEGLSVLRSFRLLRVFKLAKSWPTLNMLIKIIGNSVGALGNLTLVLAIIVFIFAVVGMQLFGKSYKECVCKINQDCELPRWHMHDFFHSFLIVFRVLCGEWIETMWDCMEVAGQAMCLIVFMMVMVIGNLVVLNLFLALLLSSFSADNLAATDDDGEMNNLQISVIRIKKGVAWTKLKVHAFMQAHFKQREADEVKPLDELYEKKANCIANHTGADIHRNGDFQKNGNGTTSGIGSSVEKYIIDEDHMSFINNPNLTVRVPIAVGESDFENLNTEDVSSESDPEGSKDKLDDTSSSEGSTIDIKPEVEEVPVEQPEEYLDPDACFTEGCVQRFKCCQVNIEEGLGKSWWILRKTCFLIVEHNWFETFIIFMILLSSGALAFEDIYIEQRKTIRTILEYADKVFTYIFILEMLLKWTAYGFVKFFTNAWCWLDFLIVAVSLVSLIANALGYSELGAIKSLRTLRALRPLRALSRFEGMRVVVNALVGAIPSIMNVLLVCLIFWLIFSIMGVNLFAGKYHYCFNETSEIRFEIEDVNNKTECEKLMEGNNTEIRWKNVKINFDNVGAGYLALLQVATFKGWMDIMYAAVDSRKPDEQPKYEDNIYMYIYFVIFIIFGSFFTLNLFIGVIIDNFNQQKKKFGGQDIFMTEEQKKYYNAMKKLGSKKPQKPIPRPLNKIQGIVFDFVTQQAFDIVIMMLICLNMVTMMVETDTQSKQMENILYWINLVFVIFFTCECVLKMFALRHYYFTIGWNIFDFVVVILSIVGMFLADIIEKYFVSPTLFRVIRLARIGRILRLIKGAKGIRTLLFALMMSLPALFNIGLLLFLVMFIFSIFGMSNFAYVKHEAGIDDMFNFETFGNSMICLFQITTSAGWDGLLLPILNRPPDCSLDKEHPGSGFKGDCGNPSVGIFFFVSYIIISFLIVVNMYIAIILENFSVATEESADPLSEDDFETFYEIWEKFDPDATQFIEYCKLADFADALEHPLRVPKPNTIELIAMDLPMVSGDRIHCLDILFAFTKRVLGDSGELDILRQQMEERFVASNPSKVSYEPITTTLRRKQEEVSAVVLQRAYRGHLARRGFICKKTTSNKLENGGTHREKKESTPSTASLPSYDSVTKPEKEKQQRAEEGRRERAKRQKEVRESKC

This test addresses T1, human NaV1.6 (hNaV1.6) (Homo sapiens, UniProt Q9UQD0).
T1 construct: expressed in transfected cells; host or cells: HEK-293
Description: Modulation of late sodium current (INaL), PatchXpress electrophysiology, HEK-293 cells expressing hNaV1.6. The class given is cell-based. The following applies: HEK293, late current evoked by 300 nM ATX-II, read-out: NaV 1.6 Assay Data: percent inhibition of INaL at hNaV1.6. On the procedure:
Functional characterization of exemplary compounds to modulate INaL expressed by the NaV1.6 voltage-gated sodium channel was accomplished using the PatchXpress™ high throughput electrophysiology platform (Molecular Devices, Sunnyvale, Calif.). HEK-293 cells expressing recombinant, human NaV1.6 (hNaV1.6) were grown in DMEM/high-glucose Dulbecco's modified, 10% FBS, 2 mM sodium pyruvate, 10 mM HEPES and 400 μg/mL G418. Cells were grown to 50%-80% confluency prior to harvesting. Trypsinized cells were washed, allowed to recover for 1 hour and then resuspended in extracellular recording solution at a concentration of 1×10^6 cells/ml. The onboard liquid handling facility of the PatchXpress was used for dispensing cells and applying test compounds. NaV late currents were evoked by the application of 300 nM ATX-II. INaL was evoked by depolarizing pulses to 0 mV for 200 ms from a non-inactivating holding potential (e.g., −120 mV) at a frequency of 0.1 Hz. INaL amplitude and stability were determined by analyzing the mean current amplitude over the final 20 ms of the test pulse. Following steady state block with exemplary compounds (e.g., as described herein), a Na+ free solution containing an impermeant cation (e.g., Choline or NDMG) was added to confirm the identify of the sodium current. Percent steady-state inhibition of INaL was calculated as: [(INaL_compound)/(INaL_control)]*100, where INaL_compound and INaL_control represent INaL recorded in the presence or absence of compound, respectively.
By inhibition is commonly meant the relative decrease from the control value, in per cent. Turning to `CCOC(F)(F)c1nnc2ccc(-c3cnc(O[C@@H](C)C(F)(F)F)c(F)c3)cn12` [Compound 32, 3-[ethoxy(difluoro)methyl]-6-[5-fluoro-6-[(1S)-2,2,2-trifluoro-1-methyl-ethoxy]-3-pyridyl]-[1,2,4]triazolo[4,3-a]pyridine], the inhibition at 1 µM is above 70%. `CCOC(F)(F)c1nnc2cnc(-c3cnc(O[C@@H](C)C(F)(F)F)c(F)c3)cn12` [Compound 33, 3-[ethoxy(difluoro)methyl]-6-[5-fluoro-6-[(1S)-2,2,2-trifluoro-1-methyl-ethoxy]-3-pyridyl]-[1,2,4]triazolo[4,3-a]pyrazine]: the inhibition at 1 µM is above 70%. Regarding `CCOC(F)(F)c1nnc2ccc(-c3cnc(O[C@H](C)C(F)(F)F)c(F)c3)cn12` [Compound 34, 3-[ethoxy(difluoro)methyl]-6-[5-fluoro-6-[(1R)-2,2,2-trifluoro-1-methyl-ethoxy]-3-pyridyl]-[1,2,4]triazolo[4,3-a]pyridine], the inhibition at 1 µM was above 70%. For `COCc1nnc2ccc(-c3cnc(OCC(F)(F)F)c(F)c3)nn12` [Compound 35, 6-[5-fluoro-6-(2,2,2-trifluoroethoxy)-3-pyridyl]-3-(methoxymethyl)-[1,2,4]triazolo[4,3-b]pyridazine], the inhibition at 1 µM was below 30%. As for `C[C@@H](Oc1ncc(-c2ccc3nnc(C(F)(F)OC4CC4)n3c2)cc1F)C(F)(F)F` [Compound 36, 3-[cyclopropoxy(difluoro)methyl]-6-[5-fluoro-6-[(1R)-2,2,2-trifluoro-1-methyl-ethoxy]-3-pyridyl]-[1,2,4]triazolo[4,3-a]pyridine], the figure is above 70%.

Consider `C[C@H](Oc1ncc(-c2ccc3nnc(C(F)(F)OC4CC4)n3c2)cc1F)C(F)(F)F` [Compound 37, 3-[cyclopropoxy(difluoro)methyl]-6-[5-fluoro-6-[(1S)-2,2,2-trifluoro-1-methyl-ethoxy]-3-pyridyl]-[1,2,4]triazolo[4,3-a]pyridine], for which the inhibition at 1 µM was above 70%. The figure for `COCc1nnc2cnc(-c3cnc(O[C@@H](C)C(F)(F)F)c(F)c3)cn12` [Compound 38, 6-[5-fluoro-6-[(1S)-2,2,2-trifluoro-1-methyl-ethoxy]-3-pyridyl]-3-(methoxymethyl)-[1,2,4]triazolo[4,3-a]pyrazine] is 30 to 70%. For `COCc1nnc2cnc(-c3cnc(OCC(F)(F)F)c(F)c3)cn12` [Compound 39, 6-[5-fluoro-6-(2,2,2-trifluoroethoxy)-3-pyridyl]-3-(methoxymethyl)-[1,2,4]triazolo[4,3-a]pyrazine], the inhibition at 1 µM is below 30%. The figure for `COCc1nnc2ccc(-c3cnc(O[C@H](C)C(F)(F)F)c(F)c3)cn12` [Compound 40, 6-[5-fluoro-6-[(1R)-2,2,2-trifluoro-1-methyl-ethoxy]-3-pyridyl]-3-(methoxymethyl)-[1,2,4]triazolo[4,3-a]pyridine] is below 30%; for `CCOC(F)(F)c1nnc2ccc(-c3cnc(O[C@@H](C)C(F)(F)F)c(F)c3)nn12` [Compound 41, 3-[ethoxy(difluoro)methyl]-6-[5-fluoro-6-[(1S)-2,2,2-trifluoro-1-methyl-ethoxy]-3-pyridyl]-[1,2,4]triazolo[4,3-b]pyridazine] it is above 70%; for `CCOC(F)(F)c1nnc2ccc(-c3cnc(O[C@H](C)C(F)(F)F)c(F)c3)nn12` [Compound 42, 3-[ethoxy(difluoro)methyl]-6-[5-fluoro-6-[(1R)-2,2,2-trifluoro-1-methyl-ethoxy]-3-pyridyl]-[1,2,4]triazolo[4,3-b]pyridazine] it is above 70%. As for `COCc1nnc2ccc(-c3cnc(O[C@@H](C)C(F)(F)F)c(F)c3)cn12` [Compound 43, 6-[5-fluoro-6-[(1S)-2,2,2-trifluoro-1-methyl-ethoxy]-3-pyridyl]-3-(methoxymethyl)-[1,2,4]triazolo[4,3-a]pyridine], the inhibition at 1 µM fell in the range of 30 to 70%. The figure for `COCc1nnc2ccc(-c3cnc(O[C@@H](C)C(F)(F)F)c(F)c3)nn12` [Compound 44, 6-[5-fluoro-6-[(1S)-2,2,2-trifluoro-1-methyl-ethoxy]-3-pyridyl]-3-(methoxymethyl)-[1,2,4]triazolo[4,3-b]pyridazine] is 30 to 70%; for `CC(C)COC(F)(F)c1nnc2cnc(-c3cnc(O[C@@H](C)C(F)(F)F)c(F)c3)cn12` [Compound 45, 3-[difluoro(isobutoxy)methyl]-6-[5-fluoro-6-[(1S)-2,2,2-trifluoro-1-methyl-ethoxy]-3-pyridyl]-[1,2,4]triazolo[4,3-a]pyrazine] it is above 70%. The figure for `COCc1nnc2ccc(-c3cnc(O[C@H](C)C(F)(F)F)c(F)c3)nn12` [Compound 46, 6-[5-fluoro-6-[(1R)-2,2,2-trifluoro-1-methyl-ethoxy]-3-pyridyl]-3-(methoxymethyl)-[1,2,4]triazolo[4,3-b]pyridazine] is 30 to 70%; for `CC(C)COC(F)(F)c1nnc2ccc(-c3cnc(O[C@@H](C)C(F)(F)F)c(F)c3)nn12` [Compound 47, 3-[difluoro(isobutoxy)methyl]-6-[5-fluoro-6-[(1S)-2,2,2-trifluoro-1-methyl-ethoxy]-3-pyridyl]-[1,2,4]triazolo[4,3-b]pyridazine] it is above 70%. As for `CC(C)COC(F)(F)c1nnc2ccc(-c3cnc(O[C@H](C)C(F)(F)F)c(F)c3)nn12` [Compound 49, 3-[difluoro(isobutoxy)methyl]-6-[5-fluoro-6-[(1R)-2,2,2-trifluoro-1-methyl-ethoxy]-3-pyridyl]-[1,2,4]triazolo[4,3-b]pyridazine], the figure is above 70%. Turning to `CCOCc1nnc2cnc(-c3cnc(O[C@@H](C)C(F)(F)F)c(F)c3)cn12` [Compound 50, 3-(ethoxymethyl)-6-[5-fluoro-6-[(1S)-2,2,2-trifluoro-1-methyl-ethoxy]-3-pyridyl]-[1,2,4]triazolo[4,3-a]pyrazine], the inhibition at 1 µM is above 70%.

In the case of `C[C@@H](Oc1ncc(-c2cn3c(C(F)(F)OC4CC4)nnc3cn2)cc1F)C(F)(F)F` [Compound 51, 3-[cyclopropoxy(difluoro)methyl]-6-[5-fluoro-6-[(1R)-2,2,2-trifluoro-1-methyl-ethoxy]-3-pyridyl]-[1,2,4]triazolo[4,3-a]pyrazine], the inhibition at 1 µM was above 70%. The figure for `CCOCc1nnc2cnc(-c3cnc(O[C@H](C)C(F)(F)F)c(F)c3)cn12` [Compound 52, 3-(ethoxymethyl)-6-[5-fluoro-6-[(1R)-2,2,2-trifluoro-1-methyl-ethoxy]-3-pyridyl]-[1,2,4]triazolo[4,3-a]pyrazine] is 30 to 70%; for `COC(F)(F)c1nnc2cnc(-c3ccc(OC4(C(F)(F)F)CCC4)nc3)cn12` [Compound 57] it is above 70%. For the molecule `COC(F)(F)c1nnc2cnc(-c3cnc(O[C@@H](C)C(F)(F)F)c(F)c3)c(C)n12` [Compound 58, 3-[difluoro(methoxy)methyl]-6-[5-fluoro-6-[(1S)-2,2,2-trifluoro-1-methyl-ethoxy]-3-pyridyl]-5-methyl-[1,2,4]triazolo[4,3-a]pyrazine], the inhibition at 1 µM was above 70%. As for `COC(F)(F)c1nnc2cnc(-c3cnc(O[C@H](C)C(F)(F)F)c(F)c3)c(C)n12` [Compound 60, 3-[difluoro(methoxy)methyl]-6-[5-fluoro-6-[(1R)-2,2,2-trifluoro-1-methyl-ethoxy]-3-pyridyl]-5-methyl-[1,2,4]triazolo[4,3-a]pyrazine], the figure is 30 to 70%; as for `COC(F)(F)c1nnc2cnc(-c3cnc(OCC(F)(F)F)c(F)c3)c(C)n12` [Compound 61, 3-[difluoro(methoxy)methyl]-6-[5-fluoro-6-(2,2,2-trifluoroethoxy)-3-pyridyl]-5-methyl-[1,2,4]triazolo[4,3-a]pyrazine], 30 to 70%; as for `C[C@H](Oc1ncc(-c2cn3c(C(F)(F)OC4CC4)nnc3cn2)cc1F)C(F)(F)F` [Compound 63, 3-[cyclopropoxy(difluoro)methyl]-6-[5-fluoro-6-[(1S)-2,2,2-trifluoro-1-methyl-ethoxy]-3-pyridyl]-[1,2,4]triazolo[4,3-a]pyrazine], above 70%.

Regarding `CCOC(F)(F)c1nnc2cnc(-c3cnc(OCc4ccccc4)c(F)c3)cn12` [Compound 64, 6-(6-benzyloxy-5-fluoro-3-pyridyl)-3-[ethoxy(difluoro)methyl]-[1,2,4]triazolo[4,3-a]pyrazine], the inhibition at 1 µM is above 70%. For `COC(F)(F)c1nnc2cc(C)c(-c3cnc(OCC(F)(F)F)c(F)c3)nn12` [Compound 65, 3-[difluoro(methoxy)methyl]-6-[5-fluoro-6-(2,2,2-trifluoroethoxy)-3-pyridyl]-7-methyl-[1,2,4]triazolo[4,3-b]pyridazine], the inhibition at 1 µM is 30 to 70%.

In the case of `COC(F)(F)c1nnc2cc(C)c(-c3cnc(O[C@H](C)C(F)(F)F)c(F)c3)nn12` [Compound 66, 3-[difluoro(methoxy)methyl]-6-[5-fluoro-6-[(1R)-2,2,2-trifluoro-1-methyl-ethoxy]-3-pyridyl]-7-methyl-[1,2,4]triazolo[4,3-b]pyridazine], the inhibition at 1 µM is above 70%.
